Data as given in the NIST ThermoML archive (doi:10.1016/j.jct.2011.05.003).

Test: xn = mol fraction of the nth substance listed
Conditions: Liquid; for speed of sound: 101 kPa, Sing-around technique in a fixed-path interferometer; for mass density: 101.3 kPa, Vibrating tube method

CCCCCC(C)=O [2-heptanone] + CCN(CC)CC
Conditions	mass density [kg/m3]	speed of sound [m/s]
293.15 K, x1 = 0.0636	733.182	1141.8
293.15 K, x1 = 0.1061	737.185	1148.4
293.15 K, x1 = 0.1585	741.934	1156
293.15 K, x1 = 0.2077	746.426	1163.5
293.15 K, x1 = 0.2536	750.6	1170.4
293.15 K, x1 = 0.3091	755.621	1178.7
293.15 K, x1 = 0.3614	760.322	1186.6
293.15 K, x1 = 0.4043	764.18	1193.1
293.15 K, x1 = 0.4621	769.325	1201.9
293.15 K, x1 = 0.5022	772.887	1208
293.15 K, x1 = 0.5577	777.79	1216.3
293.15 K, x1 = 0.6078	782.199	1223.9
293.15 K, x1 = 0.6604	786.734	1231.8
293.15 K, x1 = 0.7001	790.167	1237.8
293.15 K, x1 = 0.749	794.387	1245
293.15 K, x1 = 0.7968	798.46	1252.1
293.15 K, x1 = 0.8517	803.051	1260.2
293.15 K, x1 = 0.9008	807.18	1267.3
293.15 K, x1 = 0.9507	811.366	1274.7
298.15 K, x1 = 0.0574	727.994	1119.4
298.15 K, x1 = 0.105	732.47	1126.8
298.15 K, x1 = 0.1619	737.667	1135.5
298.15 K, x1 = 0.2068	741.77	1142.1
298.15 K, x1 = 0.2598	746.582	1150.2
298.15 K, x1 = 0.3075	750.925	1157.5
298.15 K, x1 = 0.3578	755.443	1165.2
298.15 K, x1 = 0.4081	759.984	1172.9
298.15 K, x1 = 0.4548	764.166	1180.1
298.15 K, x1 = 0.5032	768.476	1187.5
298.15 K, x1 = 0.5545	773.017	1195.4
298.15 K, x1 = 0.6103	777.928	1204
298.15 K, x1 = 0.6579	782.088	1211.3
298.15 K, x1 = 0.6994	785.697	1217.6
298.15 K, x1 = 0.7484	789.941	1225.1
298.15 K, x1 = 0.8031	794.633	1233.3
298.15 K, x1 = 0.8576	799.228	1241.5
298.15 K, x1 = 0.9014	802.909	1247.9
298.15 K, x1 = 0.9462	806.662	1254.6
303.15 K, x1 = 0.0612	723.838	1100.1
303.15 K, x1 = 0.1056	727.95	1106.8
303.15 K, x1 = 0.1602	732.935	1115.1
303.15 K, x1 = 0.2068	737.166	1122.2
303.15 K, x1 = 0.2606	742.09	1130.5
303.15 K, x1 = 0.3086	746.453	1137.9
303.15 K, x1 = 0.3583	750.968	1145.7
303.15 K, x1 = 0.4082	755.492	1153.5
303.15 K, x1 = 0.4553	759.737	1160.8
303.15 K, x1 = 0.5042	764.098	1168.4
303.15 K, x1 = 0.5983	772.43	1183.1
303.15 K, x1 = 0.6536	777.279	1191.6
303.15 K, x1 = 0.7031	781.622	1199.3
303.15 K, x1 = 0.7452	785.267	1205.8
303.15 K, x1 = 0.8088	790.717	1215.5
303.15 K, x1 = 0.8489	794.102	1221.5
303.15 K, x1 = 0.9007	798.491	1229.2
303.15 K, x1 = 0.9503	802.71	1235.8

CCCCNCCCC [dibutylamine] + CCCCCC(C)=O
Conditions	mass density [kg/m3]	speed of sound [m/s]
293.15 K, x2 = 0.064	762.405	1261.7
293.15 K, x2 = 0.1633	767.21	1263
293.15 K, x2 = 0.2061	769.239	1263.4
293.15 K, x2 = 0.2606	772.046	1264.5
293.15 K, x2 = 0.4493	781.952	1267.8
293.15 K, x2 = 0.5094	785.255	1269.1
293.15 K, x2 = 0.644	792.949	1272.1
293.15 K, x2 = 0.7511	799.387	1274.7
293.15 K, x2 = 0.9018	808.899	1278.8
298.15 K, x2 = 0.0624	758.343	1241.7
298.15 K, x2 = 0.1107	760.603	1242.2
298.15 K, x2 = 0.2097	765.511	1243.8
298.15 K, x2 = 0.3613	773.119	1246.3
298.15 K, x2 = 0.4049	775.426	1247.1
298.15 K, x2 = 0.4499	777.849	1248
298.15 K, x2 = 0.5496	783.354	1250.2
298.15 K, x2 = 0.6482	789.026	1252.5
298.15 K, x2 = 0.7509	795.166	1255.1
298.15 K, x2 = 0.7987	798.112	1256.4
298.15 K, x2 = 0.8986	804.449	1259.3
298.15 K, x2 = 0.9488	807.773	1261
303.15 K, x2 = 0.1122	756.507	1223.3
303.15 K, x2 = 0.1605	758.79	1223.9
303.15 K, x2 = 0.2587	763.614	1225.3
303.15 K, x2 = 0.3597	768.787	1227.2
303.15 K, x2 = 0.4096	771.421	1228.2
303.15 K, x2 = 0.4986	776.259	1230.1
303.15 K, x2 = 0.6478	784.736	1233.7
303.15 K, x2 = 0.747	790.673	1236.3
303.15 K, x2 = 0.7997	793.928	1237.9
303.15 K, x2 = 0.852	797.226	1239.4
303.15 K, x2 = 0.8984	800.193	1240.8

CCCNCCC [dipropylamine] + CCCCCC(C)=O
Conditions	mass density [kg/m3]	speed of sound [m/s]
293.15 K, x2 = 0.0603	743.175	1213.9
293.15 K, x2 = 0.1045	746.717	1217.2
293.15 K, x2 = 0.1559	750.817	1221
293.15 K, x2 = 0.2013	754.413	1224.3
293.15 K, x2 = 0.2526	758.468	1228.1
293.15 K, x2 = 0.2936	761.7	1231.1
293.15 K, x2 = 0.3492	766.042	1235.2
293.15 K, x2 = 0.4579	774.494	1243
293.15 K, x2 = 0.493	777.204	1245.6
293.15 K, x2 = 0.5494	781.554	1249.6
293.15 K, x2 = 0.5894	784.624	1252.6
293.15 K, x2 = 0.6478	789.087	1256.9
293.15 K, x2 = 0.6896	792.266	1259.9
293.15 K, x2 = 0.7615	797.717	1265.1
293.15 K, x2 = 0.8025	800.833	1268
293.15 K, x2 = 0.8139	801.69	1268.8
293.15 K, x2 = 0.8993	808.079	1275
293.15 K, x2 = 0.948	811.684	1278.4
298.15 K, x2 = 0.0521	738.054	1191.8
298.15 K, x2 = 0.1048	742.273	1196
298.15 K, x2 = 0.1557	746.324	1199.8
298.15 K, x2 = 0.2	749.853	1203.2
298.15 K, x2 = 0.2526	754.005	1207.1
298.15 K, x2 = 0.2962	757.449	1210.4
298.15 K, x2 = 0.3436	761.173	1213.9
298.15 K, x2 = 0.385	764.422	1217
298.15 K, x2 = 0.4478	769.307	1221.7
298.15 K, x2 = 0.5427	776.662	1228.8
298.15 K, x2 = 0.6003	781.222	–
298.15 K, x2 = 0.6436	784.41	1236.4
298.15 K, x2 = 0.69	787.95	1239.8
298.15 K, x2 = 0.7418	791.892	1243.6
298.15 K, x2 = 0.8061	796.768	1248.5
298.15 K, x2 = 0.8548	800.432	1252
298.15 K, x2 = 0.8993	803.773	1255.3
298.15 K, x2 = 0.9528	807.724	1259.1
303.15 K, x2 = 0.0578	733.883	1172.1
303.15 K, x2 = 0.1054	737.733	1175.8
303.15 K, x2 = 0.1579	741.943	1179.9
303.15 K, x2 = 0.2005	745.356	1183.2
303.15 K, x2 = 0.2497	749.277	1187.1
303.15 K, x2 = 0.2951	752.865	1190.6
303.15 K, x2 = 0.3476	756.998	1194.7
303.15 K, x2 = 0.3856	759.993	1197.7
303.15 K, x2 = 0.4504	765.062	1202.6
303.15 K, x2 = 0.5442	772.346	1209.8
303.15 K, x2 = 0.5891	775.815	1213.4
303.15 K, x2 = 0.642	779.872	1217.3
303.15 K, x2 = 0.687	783.319	1220.8
303.15 K, x2 = 0.7413	787.465	1225
303.15 K, x2 = 0.7994	791.897	1229.4
303.15 K, x2 = 0.8564	796.191	1233.7
303.15 K, x2 = 0.8993	799.423	1236.9
303.15 K, x2 = 0.9497	803.188	1240
